Reference: patent publication US20070244184A1, “GLYCOSIDASE INHIBITORS AND METHODS OF SYNTHESIZING SAME” (SIMON FRASER UNIVERSITY, priority 2006, published 2007)
Counter-ions that a name gives are not always drawn. Like-named read-outs stand apart in the source and are kept apart here.

How the values were obtained:
[1] = target: T1, recombinant human maltase glucoamylase (MGA) (Homo sapiens, UniProt O43451); assay: Recombinant MGA inhibition, maltose substrate, glucose oxidase assay (Ki); type: biochemical; settings: for Ki: maltose substrate, read-out: Ki against recombinant human MGA
T1 sequence (O43451 87-954 limits assumed): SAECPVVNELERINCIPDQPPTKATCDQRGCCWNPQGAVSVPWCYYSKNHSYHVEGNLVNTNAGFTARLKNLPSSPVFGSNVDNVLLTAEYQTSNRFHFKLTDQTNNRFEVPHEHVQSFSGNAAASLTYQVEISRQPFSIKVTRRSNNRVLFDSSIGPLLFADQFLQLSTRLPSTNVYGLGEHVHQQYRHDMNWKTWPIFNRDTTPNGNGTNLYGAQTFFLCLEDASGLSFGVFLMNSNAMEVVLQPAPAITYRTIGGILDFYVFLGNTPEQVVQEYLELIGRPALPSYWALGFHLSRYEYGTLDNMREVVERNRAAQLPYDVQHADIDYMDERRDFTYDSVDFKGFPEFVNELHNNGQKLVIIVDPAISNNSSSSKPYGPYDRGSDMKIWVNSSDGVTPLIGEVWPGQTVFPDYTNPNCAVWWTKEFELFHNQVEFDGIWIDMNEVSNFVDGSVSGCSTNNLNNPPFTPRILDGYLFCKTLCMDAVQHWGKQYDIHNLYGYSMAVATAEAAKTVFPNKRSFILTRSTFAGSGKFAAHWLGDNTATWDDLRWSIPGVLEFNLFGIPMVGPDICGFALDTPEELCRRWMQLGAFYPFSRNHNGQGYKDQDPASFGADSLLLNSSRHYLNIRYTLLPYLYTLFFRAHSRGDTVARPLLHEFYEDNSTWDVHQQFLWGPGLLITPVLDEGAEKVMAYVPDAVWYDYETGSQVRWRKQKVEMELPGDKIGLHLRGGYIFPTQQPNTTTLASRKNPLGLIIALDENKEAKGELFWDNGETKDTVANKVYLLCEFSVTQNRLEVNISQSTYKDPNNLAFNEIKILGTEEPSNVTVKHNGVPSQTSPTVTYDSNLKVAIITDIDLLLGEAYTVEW
Method: (§1) Enzyme Activity Assays: Measurement of dGMII inhibition was carried out as outlined in the literature.^12 Analysis of recombinant MGA inhibition and determination of the kinetic constants for competitive inhibition have been described.^60 Briefly, analysis of MGA inhibition was performed using maltose as the substrate, and measuring the release of glucose. Reactions were carried out in 100 mM MES buffer pH 6.5 at 37° C. The reaction was stopped by boiling for 3 min. 20 μL aliquots were taken and added to 100 μL of glucose oxidase assay reagent (Sigma) in a 96-well plate. Reactions were developed for 1 hour and absorbance was measured at 450 nm to determine the amount of glucose produced by MGA activity in the reaction. All reactions were performed in triplicate and absorbance measurements were averaged to give a final result.
Enzyme Kinetics: Kinetic parameters of recombinant MGA were determined using the glucose oxidase assay to follow the production of glucose upon addition of enzyme (15 nM) at increasing maltose concentrations (from 2.5 mM to 30 mM) with a reaction time of 15 minutes. The Ki value was determined by measuring the rate of maltose hydrolysis by MGA at varying inhibitor concentrations. Data were plotted in Lineweaver-Burk plots (1/rate vs. 1/[substrate]) and the Ki value was determined by the equation Ki=Km[I]/(Vmax)s−Km, where “s” is the slope of the line. The Ki reported was an average of the Ki values obtained from each of the different inhibitor concentrations.
Enzyme Activity Assay. Analysis of MGA inhibition was performed using maltose as the substrate, and measuring the release of glucose. Reactions were carried out in 100 mM MES buffer pH 6.5 at 37° C. for 15 min. The reaction was stopped by boiling for 3 min. 20 μL aliquots were taken and added to 100 μL of glucose oxidase assay reagent (Sigma) in a 96-well plate. Reactions were allowed to proceed for 1 h and absorbance was measured at 450 nm to determine the amount of glucose produced by MGA activity in the reaction. One unit of activity is defined as the hydrolysis of one […] of maltose per minute. All reactions were performed in triplicate and absorbance measurements were averaged to give a final result.
Enzyme Kinetics. Kinetic parameters of recombinant MGA were determined using the glucose oxidase assay to follow the production of glucose upon addition of enzyme (15 nM) at increasing maltose concentrations (from 1 mM-3.5 mM) with a reaction time of 15 min. The program GraFit 4.0.14 was used to fit the data to the Michaelis-Menten equation and estimate the kinetic parameters, Km and Vmax, of the enzyme. Ki values for each inhibitor were determined by measuring the rate of maltose hydrolysis by MGA at varying inhibitor concentrations. Data were plotted in Lineweaver-Burk plots (1/rate vs. 1/[substrate]) and Ki values were determined by the equation Ki=Km[I]/(Vmax)m−Km, where “m” is the slope of the line. The Ki reported for each inhibitor was estimated by averaging the Ki values obtained from each of the different inhibitor concentrations.

[2] = target: T1, recombinant human maltase glucoamylase (MGA); assay: MGA inhibition, p-nitrophenyl α-D-glucopyranoside substrate (IC50); type: biochemical; settings: p-nitrophenyl α-D-glucopyranoside as substrate
Method: The assays were carried out in 96-well microtiter plates containing 100 mM MES buffer pH 6.5, inhibitor and pNP-glucose as substrate, with a final volume of 50 μL. Reactions were incubated at 37° C. for 35 min and terminated by addition of 50 μL of 0.5 M sodium carbonate. […] All reactions were performed in triplicate and absorbance measurements were averaged to give a final result.

[3] = target: T2, Drosophila melanogaster Golgi α-mannosidase II (dGMII) (Drosophila melanogaster, UniProt Q24451); settings: read-out: IC50 against dGMII, cited from earlier work
T2 sequence (Q24451 1-1108): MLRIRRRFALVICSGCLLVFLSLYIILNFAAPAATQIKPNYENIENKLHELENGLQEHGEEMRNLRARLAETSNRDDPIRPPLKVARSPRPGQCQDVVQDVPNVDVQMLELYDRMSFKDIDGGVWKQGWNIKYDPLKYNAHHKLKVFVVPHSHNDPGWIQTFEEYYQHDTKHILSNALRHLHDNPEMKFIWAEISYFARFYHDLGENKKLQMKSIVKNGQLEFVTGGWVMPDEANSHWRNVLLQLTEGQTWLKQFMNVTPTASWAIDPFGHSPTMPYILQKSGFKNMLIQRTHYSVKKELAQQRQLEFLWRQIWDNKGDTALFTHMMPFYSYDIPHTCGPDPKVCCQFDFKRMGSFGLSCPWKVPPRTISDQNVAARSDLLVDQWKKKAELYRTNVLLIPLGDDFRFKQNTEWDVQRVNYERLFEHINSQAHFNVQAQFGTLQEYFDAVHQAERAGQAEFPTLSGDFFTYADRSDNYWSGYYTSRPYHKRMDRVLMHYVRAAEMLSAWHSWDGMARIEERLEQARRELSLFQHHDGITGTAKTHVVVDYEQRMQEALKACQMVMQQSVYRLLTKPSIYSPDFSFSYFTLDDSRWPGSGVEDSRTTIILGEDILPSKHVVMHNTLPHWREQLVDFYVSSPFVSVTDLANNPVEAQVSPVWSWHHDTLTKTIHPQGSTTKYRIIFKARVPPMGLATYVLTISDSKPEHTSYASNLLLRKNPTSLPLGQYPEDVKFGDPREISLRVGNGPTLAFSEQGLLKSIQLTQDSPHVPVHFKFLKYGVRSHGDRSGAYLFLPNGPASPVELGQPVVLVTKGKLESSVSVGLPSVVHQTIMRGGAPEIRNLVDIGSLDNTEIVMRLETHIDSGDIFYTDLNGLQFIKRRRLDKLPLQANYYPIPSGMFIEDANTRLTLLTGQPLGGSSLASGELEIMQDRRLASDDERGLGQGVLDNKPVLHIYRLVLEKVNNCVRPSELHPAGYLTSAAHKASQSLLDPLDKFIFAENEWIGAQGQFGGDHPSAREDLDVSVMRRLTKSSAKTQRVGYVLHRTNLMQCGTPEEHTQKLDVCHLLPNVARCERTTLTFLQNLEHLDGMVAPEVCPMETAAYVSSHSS

[4] = target: T2, Drosophila melanogaster Golgi α-mannosidase II (dGMII); assay: dGMII inhibition; type: biochemical
Method: as §1

[5] = target: T1, recombinant human maltase glucoamylase (MGA); settings: cited from earlier work

## O=S(=O)([O-])OC(CO)C(O)C(O)C[Se+]1CC(O)C(O)C1CO [Compound 79, 1,4-Dideoxy-1,4[[2S,3S,4S]-2,3,5-trihydroxy-4-(sulfooxy)-pentyl]-epi-selenoniumylidene]-D-arabinitol Inner salt]
[1]
  Ki: 53 ± 5 µM

## CCCCCCCCCCCCCC[S+]1CC(O)C(O)C1CO [Compound 44, 1,4-Dideoxy-1,4-[(1-tetradecyl)-(R)-episulfoniumylidene]-D-arabinitol triflate]
[2]
  IC50: 25 µM

## O=S(=O)([O-])OC(C(O)C[S+]1CC(O)C(O)C1CO)C(O)C(O)C(O)CO (stereo not shown) [kotalanol]
[3]
  IC50: ~7500 µM

## O=C([O-])C(O)C(O)C(O)C[S+]1CC(O)C(O)C1CO [Compound 5, 1,4-Dideoxy-1,4-[[(2′S,3′S,4′R)-2′,3′,4′-trihydroxy-4′-carboxybutyl]-episulfoniumyl-idene]-D-arabinitol inner salt]
[1]
  Ki: 10 µM

## CCCCCCCCCCCCCC[S+]1CC(O)C(O)C1CO (as salt: triflate) [Compound 44, 1,4-Dideoxy-1,4-[(1-tetradecyl)-(R)-episulfoniumylidene]-D-arabinitol triflate]
other
  melting point: 69 to 71 °C

## O=C(O)[C@@H](O)[C@@H](O)[C@H](O)[C@@H](O)CN1C[C@@H](O)[C@H](O)[C@H]1CO [Compound 21, 6′-((1,4-Dideoxy-1,4-imino-D-arabinitol)-4-N-ammonium)-6′-deoxy-L-gulonic acid hydro-chloride]
[4]; 0.3 mM vs approximately 7.5 mM
  improvement of dGMII inhibition over salacinol, kotalanol and other analogues: 25 fold
[4]; read-out: IC50 against dGMII
  IC50: 300 µM
[1]
  Ki: 21 µM

## CCCCCCCCCCCCCCCCCC[S+]1CC(O)C(O)C1CO [Compound 49, 1,4-Dideoxy-1,4-[(1-octadecyl)-(R)-episulfoniumylidene]-D-arabiiiitol chloride]
[2]
  IC50: 15 µM

## O=S(=O)([O-])OC(CO)C(O)C[Se+]1CC(O)C(O)C1CO (stereo not shown) [blintol]
[5]; read-out: Ki against MGA, reference compounds, unit inferred
  Ki: 0.49 ± 0.05 µM
[3]
  IC50: ~7500 µM

## O=S(=O)([O-])O[C@H](CO)[C@H](O)[C@@H](O)C[S+]1C[C@@H](O)[C@H](O)[C@H]1CO (stereo partly drawn) [Compound 80, 1,4-Dideoxy-1,4[[2R,3R,4R]-2,3,5-trihydroxy-4-(sulfooxy)-pentyl]-epi-sulfoniumylidene]-D-arabinitol Inner salt]
[1]
  inhibitory activity against recombinant human MGA (in words): not active

## O=S(=O)([O-])OC(CO)C(O)C(O)C[S+]1CC(O)C(O)C1CO (stereo not shown) [Compound 78]
[1]
  Ki: 20 ± 4 µM

## O=S(=O)([O-])OC(CO)C(O)C(O)C[Se+]1CC(O)C(O)C1CO [Compound 81, 1,4-Dideoxy-1,4[[2R,3R,4R]-2,3,5-trihydroxy-4-(sulfooxy)-pentyl]-epi-selenoniumylidene]-D-arabinitol Inner salt]
[1]
  inhibitory activity against recombinant human MGA (in words): not active

## CCCCCCCCCCCCCC[S+]1CC(O)C(O)C1CO (as salt: chloride) [Compound 48, 1,4-Dideoxy-1,4-[(1-tetradecyl)-(R)-episulfoniumylidene]-D-arabinitol chloride]
other
  melting point: 86 to 88 °C

## O=C([O-])[C@H](O)[C@H](O)[C@H](O)C[S@@+]1C[C@H](O)[C@@H](O)[C@@H]1CO [Compound 4, 1,4-Dideoxy-1,4-[[(2′S,3′S,4′R)-2′,3′,4′-trihydroxy-4′-carboxybutyl]-episulfoniumyl-idene]-L-arabinitol inner salt]
[1]
  inhibitory activity against recombinant human MGA (in words): Only compound 5, with the D-arabinitol configuration in the heterocyclic ring displayed by salacinol 1, was found to be active

## CCCCCCCCCCCCCCCCCC[S+]1CC(O)C(O)C1CO (as salt: chloride) [Compound 49, 1,4-Dideoxy-1,4-[(1-octadecyl)-(R)-episulfoniumylidene]-D-arabiiiitol chloride]
other
  melting point: 95 to 97 °C

## CCCCCCCCCCCCCC[S+]1CC(O)C(O)C1CO [Compound 48, 1,4-Dideoxy-1,4-[(1-tetradecyl)-(R)-episulfoniumylidene]-D-arabinitol chloride]
[2]
  IC50: 30 µM

## CCCCCC[S+]1CC(O)C(O)C1CO [Compound 46, 1,4-Dideoxy-1,4-[(1-hexyl)-(R)-episulfoniumylidene]-D-arabinitol chloride]
[2]
  IC50: 50 µM

## O=C(O)[C@@H](O)[C@@H](O)[C@H](O)[C@@H](O)CN1C[C@H](O)[C@@H](O)[C@@H]1CO [Compound 20, 6′-((1,4-Dideoxy-1,4-imino-L-arabinitol)-4-N-ammonium)-6′-deoxy-L-gulonate]
[4]
  activity against dGMII (in words): not active on either enzyme
[1]
  inhibitory activity against recombinant human MGA (in words): not active on either enzyme

## CC(C)CC[S+]1CC(O)C(O)C1CO [Compound 50, 1,4-Dideoxy-1,4-[[1-(3-methyl)-butyl]-(R)-episulfoniumylidene]-D-arabinitol chloride]
[2]
  IC50: 50 µM

## O[C@H]1[C@H]2[C@H](O)CCCN2C[C@H]1O [swainsonine]
[3]; swainsonine, literature value
  IC50: 0.02 to 0.04 µM

## O=S(=O)([O-])O[C@@H]([C@H](O)C[S@+]1C[C@@H](O)[C@H](O)[C@H]1CO)[C@@H](O)CO [Compound 89]
[5]
  inhibitory activity against MGA (in words): inactive

## O=S(=O)([O-])OC(CO)C(O)C[S+]1CC(O)C(O)C1CO (stereo not shown) [salacinol]
[3]
  IC50: ~7500 µM
